Laboratory results taken from the NIST ThermoML archive (doi:10.1007/s10765-016-2109-2).

Assay: molar heat capacity at saturation pressure
Details: Liquid, Vacuum adiabatic calorimetry

CCCCCC[n+]1ccn(C)c1.O=S(=O)([N-]S(=O)(=O)C(F)(F)F)C(F)(F)F
Details	molar heat capacity [J/K/mol]
288.72 K	599.09
288.87 K	602.23
289.04 K	592.83
289.17 K	597.31
289.3 K	604.91
289.44 K	590.59
289.57 K	596.41
289.7 K	599.99
289.83 K	601.78
297.45 K	599.54
297.76 K	608.04
297.89 K	604.46
298.02 K	598.65
298.15 K	596.41
298.28 K	606.25
298.41 K	601.78
298.53 K	599.99
298.66 K	603.57
301.64 K	606.7
301.75 K	608.94
301.88 K	612.52
302.01 K	606.7
302.13 K	613.41
302.26 K	605.81
304.3 K	608.49
304.69 K	603.12
304.82 K	606.7
304.95 K	612.52
305.08 K	604.46
305.2 K	610.73
305.33 K	607.6
305.46 K	613.41
305.59 K	609.39
314.15 K	619.68
314.57 K	615.2
314.69 K	607.6
314.82 K	616.99
314.94 K	611.62
315.07 K	612.52
315.2 K	618.33
315.32 K	614.75
315.45 K	608.94
320.89 K	620.12
321.17 K	622.81
321.3 K	614.75
321.42 K	621.02
321.55 K	613.41
321.67 K	616.99
321.79 K	616.1
321.92 K	619.23
322.04 K	622.36
322.16 K	621.02
322.29 K	618.33
322.41 K	623.7
323.89 K	624.15
324.15 K	620.57
324.28 K	625.49
324.4 K	627.73
324.52 K	629.07
324.65 K	621.47
324.77 K	622.81
324.89 K	617.89
325.02 K	621.02
325.14 K	625.05
325.24 K	622.36
325.26 K	623.7
333.63 K	634.44
333.82 K	633.99
333.94 K	626.83
334.06 K	631.76
334.18 K	629.07
334.3 K	632.65
334.42 K	636.68
334.54 K	633.1
334.66 K	627.28
334.79 K	631.31
334.91 K	629.97
339.73 K	638.92
339.83 K	637.13
339.95 K	634.89
340.03 K	643.39
340.15 K	635.78
340.27 K	640.7
340.39 K	642.05
340.51 K	638.47
344.34 K	641.6
344.46 K	645.63
344.58 K	642.49
344.7 K	644.73
344.82 K	639.36
344.93 K	648.31
345.05 K	647.42
345.17 K	645.18
345.29 K	638.47
345.41 K	643.84
348.64 K	645.18
348.76 K	643.84
348.88 K	648.31
348.99 K	646.97
349.11 K	649.65
349.23 K	648.76
349.35 K	644.73
349.47 K	647.42
349.58 K	643.39
349.65 K	648.31
349.7 K	645.63
349.82 K	643.39
349.94 K	645.63
350.05 K	644.73
350.17 K	646.97
350.29 K	647.86
350.36 K	647.42
